From ChEMBL document CHEMBL6120988, “Mitochondria-targeting artesunate-rhein conjugates: Linker-modulated cell-permeability, heme-affinity and anticancer activity” (Eur J Med Chem, 2025)
pIC50: −log10 of the molar value. Activity calls are given as the source filed them. No cut-off for these calls is given here.

Assays:
HeLa = assay: Cytotoxicity against human Hela cells assessed as cell viability by MTT assay; type: functional, cell-based
4T1 [1] = assay: Induction of apoptosis in mouse 4T1 cells assessed as necrotic cells by Annexin V-FITC and PI staining based flow cytometry analysis (reference value: 0.085 %); type: functional
MCF7 = assay: Cytotoxicity against human MCF7 cells assessed as cell viability by MTT assay; type: functional, cell-based
4T1 [2] = assay: Induction of apoptosis in mouse 4T1 cells assessed as early apoptotic cells by Annexin V-FITC and PI staining based flow cytometry analysis(reference value: 3.60 %); type: functional
[3] = Drug localization in mitochondria of mouse 4T1 cells assessed as fluorescence intensity measured using pearson co-efficient incubated for 10 hrs by mito-tracker red fluorescent dye based confocal laser scanning microscopic analysis; type: ADME; details: 4t1, 10 h
4T1 [4] = assay: Cytotoxicty against mouse 4T1 cells assessed as cell death by measuring red staining by calcein/PI staining based live/dead staining analysis; type: functional
4T1 [5] = assay: Induction of apoptosis in mouse 4T1 cells assessed as viable cells by Annexin V-FITC and PI staining based flow cytometry analysis (reference value: 96.2 %); type: functional
A549 = assay: Cytotoxicity against human A549 cells assessed as cell viability by MTT assay; type: functional, cell-based
Mitochondrial membrane = assay: Induction of mitochondrial membrane potential loss in mouse 4T1 cells assessed as increase in green fluorescence by JC-1 staining based flow cytometric analysis (reference value: 7.4 %); type: cell membranes
U-87 MG = assay: Cytotoxicity against human U87 cells assessed as cell viability by MTT assay; type: functional, cell-based, U-87MG ATCC
4T1 [6] = assay: Induction of apoptosis in mouse 4T1 cells assessed as late apoptotic cells by Annexin V-FITC and PI staining based flow cytometry analysis (reference value: 0.13 %); type: functional
4T1 [7] = assay: Cytotoxicty against mouse 4T1 cells assessed as cell viability by MTT assay; type: functional, cell-based
4T1 [8] = assay: Induction of ROS production in mouse 4T1 cells assessed as increase in intracellular ROS level by […] staining based flow cytometry (reference value: 7.8%); type: functional
4T1 [9] = assay: Induction of immunogenic cell death in mouse 4T1 cells assessed as increase in CRT expression by flow cytometry analysis (reference value: 2.55%); type: functional
4T1 [10] = assay: Induction of immunogenic cell death in mouse 4T1 cells assessed as increase in CRT exposure on cell surface by measuring increase in red fluorescence by CLSM analysis (reference value: 2.55%); type: functional

With `C[C@H]1[C@H](OC(=O)CCC(=O)OCCCOC(=O)c2cc(O)c3c(c2)C(=O)c2cccc(O)c2C3=O)O[C@@H]2O[C@@]3(C)CC[C@H]4[C@H](C)CC[C@@H]1[C@@]24OO3` the pIC50 (HeLa) was 5.54, the Activity (4T1 [1]) was 3.35% and the pIC50 (MCF7) was 5.61. The Activity (4T1 [2]) was 14.9%, the Flu intensity [3] was 0.96 and the Activity (4T1 [4]) was “Active”. It also gave an Activity (4T1 [5]) of 60.1%, a pIC50 (A549) of 5.53 and an Activity (Mitochondrial membrane) of 37.3%. The pIC50 (U-87 MG) was 5.59, the Activity (4T1 [6]) was 21.6% and the pIC50 (4T1 [7]) was 5.85. For the same compound, the Activity (4T1 [8]) was 31%.
Work on `C[C@H]1[C@H](OC(=O)CCC(=O)OCCCCCOC(=O)c2cc(O)c3c(c2)C(=O)c2cccc(O)c2C3=O)O[C@@H]2O[C@@]3(C)CC[C@H]4[C@H](C)CC[C@@H]1[C@@]24OO3` yielded a pIC50 (HeLa) of 5.54, an Activity (4T1 [1]) of 2.34% and a pIC50 (MCF7) of 5.64. The Activity (4T1 [2]) was 13%, the Flu intensity [3] was 0.94 and the Activity (4T1 [4]) was “Active”. It also gave an Activity (4T1 [5]) of 69.5%, a pIC50 (A549) of 5.50 and an Activity (Mitochondrial membrane) of 36.5%. It also gave a pIC50 (U-87 MG) of 5.54, an Activity (4T1 [6]) of 15.2% and a pIC50 (4T1 [7]) of 5.77. The Activity (4T1 [8]) was 30%.
Work on `CC(=O)O[C@H]1C(=O)[C@@]2(C)[C@H]([C@H](OC(=O)c3ccccc3)[C@]3(O)C[C@H](OC(=O)[C@H](O)[C@@H](NC(=O)c4ccccc4)c4ccccc4)C(C)=C1C3(C)C)[C@]1(OC(C)=O)CO[C@@H]1C[C@@H]2O` [PACLITAXEL] yielded a pIC50 (4T1 [7]) of 5.50.
Compound `O=C(O)c1cc(O)c2c(c1)C(=O)c1cccc(O)c1C2=O` [RHEIN] has a pIC50 (HeLa) of 4.29, an Activity (4T1 [1]) of 0.83% and a pIC50 (MCF7) of 4.25. It also gave an Activity (4T1 [9]) of 3.82%, an Activity (4T1 [2]) of 4.28% and a Flu intensity [3] of 0.93. It also gave an Activity (4T1 [5]) of 94%, a pIC50 (A549) of 4.27 and an Activity (Mitochondrial membrane) of 11.4%. It also gave a pIC50 (U-87 MG) of 4.32, an Activity (4T1 [6]) of 0.86% and a pIC50 (4T1 [7]) of 4.29. The Activity (4T1 [8]) was 11.8% and the Activity (4T1 [10]) was 3.82%.
For `C[C@H]1[C@H](OC(=O)CCC(=O)OCCOC(=O)c2cc(O)c3c(c2)C(=O)c2cccc(O)c2C3=O)O[C@@H]2O[C@@]3(C)CC[C@H]4[C@H](C)CC[C@@H]1[C@@]24OO3`, the pIC50 (HeLa) was 5.56, the Activity (4T1 [1]) was 6.81% and the pIC50 (MCF7) was 5.65. For the same compound, the Activity (4T1 [2]) was 13.9%, the Flu intensity [3] was 0.91 and the Activity (4T1 [4]) was “Active”. It also gave an Activity (4T1 [5]) of 52.6%, a pIC50 (A549) of 5.52 and an Activity (Mitochondrial membrane) of 39.2%. The pIC50 (U-87 MG) was 5.61, the Activity (4T1 [6]) was 26.7% and the pIC50 (4T1 [7]) was 5.85. It also gave an Activity (4T1 [8]) of 39.6%.
`C[C@H]1[C@H](OC(=O)CCC(=O)OCCCCCCOC(=O)c2cc(O)c3c(c2)C(=O)c2cccc(O)c2C3=O)O[C@@H]2O[C@@]3(C)CC[C@H]4[C@H](C)CC[C@@H]1[C@@]24OO3` showed a pIC50 (HeLa) of 5.51, an Activity (4T1 [1]) of 2.37% and a pIC50 (MCF7) of 5.66. The Activity (4T1 [2]) was 14.2%, the Flu intensity [3] was 0.95 and the Activity (4T1 [4]) was “Active”. The Activity (4T1 [5]) was 65.8%, the pIC50 (A549) was 5.48 and the Activity (Mitochondrial membrane) was 38.1%. The pIC50 (U-87 MG) was 5.57, the Activity (4T1 [6]) was 17.7% and the pIC50 (4T1 [7]) was 5.74. For the same compound, the Activity (4T1 [8]) was 32.7%.
With `C[C@H]1[C@H](OC(=O)CCC(=O)O)O[C@@H]2O[C@@]3(C)CC[C@H]4[C@H](C)CC[C@@H]1[C@@]24OO3` [ARTESUNATE] the pIC50 (HeLa) was 4.81, the Activity (4T1 [1]) was 0.71% and the pIC50 (MCF7) was 4.89. The Activity (4T1 [9]) was 9.59%, the Activity (4T1 [2]) was 6.46% and the Activity (4T1 [5]) was 90.6%. For the same compound, the pIC50 (A549) was 4.83, the Activity (Mitochondrial membrane) was 14.8% and the pIC50 (U-87 MG) was 4.87. For the same compound, the Activity (4T1 [6]) was 2.24%, the pIC50 (4T1 [7]) was 4.92 and the Activity (4T1 [8]) was 14.3%. For the same compound, the Activity (4T1 [10]) was 9.59%.
